Reference: ChEMBL document CHEMBL1130967, “Modulation of apoptosis in human lymphocytes by adenosine analogues” (1998)

What was measured:
Format in all cases: functional
[1] = Percentage of apoptotic cells in human peripheral blood mononuclear cells after 72 hour incubation at the concentration 1 uM; settings: at 1 µM
[2] = Percentage of apoptotic cells in human peripheral blood mononuclear cells after 72 hour incubation at the concentration 10 uM; settings: at 10 µM
[3] = Percentage of apoptotic cells in human peripheral blood mononuclear cells after 72 hour incubation at the concentration 30 uM; settings: at 30 µM
[4] = Percentage of apoptotic cells in human peripheral blood mononuclear cells after 72 hour incubation at the concentration 60 uM; settings: at 60 µM

Row | SMILES | Apoptotic cells [1] | Apoptotic cells [2] | Apoptotic cells [3] | Apoptotic cells [4]
1 | Nc1ccnc2c1ncn2[C@@H]1O[C@H](CO)[C@@H](O)[C@H]1O | 8% | 16.6% | 12.8% | 10.7%
2 | Nc1nc(Cl)nc2c1ncn2C1CCC(CO)O1 (stereo not given) | 4.7% | 8.5% | 9.6% | 11.4%
3 | OC[C@H]1O[C@@H](n2cnc3c(NC4CCCCCC4)ncnc32)C[C@@H]1O | 8% | 9.4% | 9.8% | 11.1%
4 | OC[C@H]1O[C@@H](n2cnc3c(NC4CCCCCC4)nc(Cl)nc32)C[C@@H]1O | 8.2% | 7.9% | 12.3% | 16.3%
5 | OC[C@H]1O[C@@H](n2cnc3c(NC4CCCC4)ncnc32)C[C@@H]1O | 6.7% | 7.9% | 7.1% | 8.7%
6 | OC[C@H]1O[C@@H](n2cnc3c(NC4CCCC4)nc(Cl)nc32)C[C@@H]1O | 4.7% | 10% | 18.8% | 38.8%
7 | OC[C@H]1O[C@@H](n2cnc3c(NC4CC4)ncnc32)C[C@@H]1O | 7.1% | 9.5% | 9.5% | 10.6%
8 | OC[C@H]1O[C@@H](n2cnc3c(NC4CC4)nc(Cl)nc32)C[C@@H]1O | 7.8% | 7.7% | 17.9% | 24.7%
9 | Nc1nccc2c1ncn2[C@@H]1O[C@H](CO)[C@@H](O)[C@H]1O | 9.9% | 6.5% | 11.9% | 10.7%
10 | Nc1cc(Cl)nc2c1ncn2[C@@H]1O[C@H](CO)[C@@H](O)[C@H]1O | 10.2% | 10.4% | 11.1% | 12.1%
11 | Nc1nc(I)nc2c1ncn2[C@@H]1O[C@H](CO)[C@@H](O)[C@H]1O | 9.1% | 12.1% | 12% | 12.2%
12 | Nc1nc(Cl)nc2c1ncn2C1OC(CO)CC1O (stereo not given) | 7.7% | 13% | 11.4% | 10.4%
13 | OC[C@H]1O[C@@H](n2cnc3c(NC4CCCC4)nc(Cl)nc32)[C@H](O)[C@@H]1O | 5.4% | 10.4% | 9.6% | 11%
14 | Nc1nc(Cl)nc2c1ncn2[C@@H]1O[C@H](CO)[C@@H](O)[C@H]1O | 8.8% | 41.8% | 82.7% | 91.9%
15 | OC[C@H]1O[C@@H](n2cnc3c(NC4CCCC4)cc(Cl)nc32)C[C@@H]1O | 8.6% | 9.7% | 12% | 13.9%
16 | OC[C@H]1O[C@@H](n2cnc3c(NC4CC4)cc(Cl)nc32)C[C@@H]1O | 7.3% | 10.4% | 10.8% | 11.4%
17 | OC[C@H]1O[C@@H](n2cnc3c(NC4CCCCCC4)ccnc32)C[C@@H]1O | 7.7% | 8.1% | 8.9% | 9.6%
18 | OC[C@H]1O[C@@H](n2cnc3c(NC4CCCCCC4)cc(Cl)nc32)C[C@@H]1O | 7.4% | 7.9% | 9.6% | 10.5%
19 | OC[C@H]1O[C@@H](n2cnc3c(NC4CCCC4)ccnc32)C[C@@H]1O | 9.8% | 9.8% | 9.5% | 9.9%
20 | Nc1nc(Cl)cc2c1ncn2[C@H]1C[C@H](O)[C@@H](CO)O1 | 16.6% | 20.2% | 34.5% | 59.2%
21 | OC[C@H]1O[C@@H](n2cnc3c(NC4CCCC4)nc(Cl)cc32)C[C@@H]1O | 13.1% | 13.5% | 14.9% | 15.2%
22 | Nc1cc(Cl)nc2c1ncn2[C@H]1C[C@H](O)[C@@H](CO)O1 | 5% | 8.7% | 9.8% | 10.6%
23 | CNC(=O)C1OC(n2cnc3c(N)nc(Cl)nc32)CC1O (stereo not given) | 4.5% | 8.1% | 10.4% | 10.7%
24 | Nc1nc(Cl)cc2c1ncn2C1O[C@H](CO)[C@@H](O)[C@H]1O (stereo not given in full) | 9.6% | 9% | 9.6% | 10.3%
25 | Nc1nc(Cl)nc2c1ncn2[C@H]1C[C@H](O)[C@@H](CO)O1 [CLADRIBINE] | 91% | 91.2% | 93.8% | 94.7%
